In patent publication US20250298040A1, “MEASUREMENT OF REACTIVE OXYGEN SPECIES TO ASSESS RED BLOOD CELL QUALITY” (UNIVERSITY OF MARYLAND, BALTIMORE, priority 2022, published 2025):

Experiments:
[1] = system: RBCs from FVB and B6 mice; experiment: CMH oxidation in refrigerator-stored murine RBCs (FVB vs B6), EPR; type: cell-based, mouse
Experimental: (§1) Measurement of CMH oxidation by EPR spectroscopy. All samples for EPR measurement contained 1 mM CMH. Other reagents, when used, were at the following concentrations: xanthine oxidase (XO), 0.03 U/mL; superoxide dismutase (SOD), 5 μM; hypoxanthine (HX), 0.5 mM; hydrogen peroxide (H2O2), 1 mM. Cell-free measurements were made in phosphate-buffered saline (PBS) containing 1 mM diethylenetriaminepentaacetic acid (DTPA). For measurements on RBCs, each sample was made by mixing 2 μL of 50 mM CMH·HCl stock solution with 98 μL of RBC suspension (˜40% hematocrit) in Citrate Phosphate Dextrose Adenine (CPDA-1, Sigma-Aldrich, St. Louis, MO). Time zero (t=0) is the time at which CMH is mixed into the sample. The amplitude (h) of the center peak of the CM· nitroxide EPR spectrum was converted into concentration (C in μM) by using a calibration equation, which for this example was C=(h−0.03308)/0.06461, determined using a series of standard samples.
Murine blood collection and storage. Mouse blood collections were approved by the University of Maryland, Baltimore Institutional Animal Care and Use Committee (IACUC) (protocol #0520008). Processed RBCs from two different mouse strains (C57BL/6J or B6 for short, Jackson Laboratory, Barr Harbor, ME and FVB, Charles Rivers, Worcester, MA) were evaluated in this study. Whole blood (approximately 800-1000 μL per mouse) was collected by cardiac puncture using a 21 G×1 inch needle and 1 mL syringe containing Citrate Phosphate Dextrose solution (CPD) from n=15 B6 and n=15 FVB mice. Blood was pooled within the strains in 15 mL falcon tubes and centrifuged at 750×g for 5 minutes. The plasma and buffy coat were removed. Each aliquot was washed 3 times in 5 mL of phosphate-buffered saline containing 10 mM glucose (PBS-G) with gentle swirling for 3 minutes followed by centrifugation at 750×g for 5 minutes. After the final wash, PBS-G was removed and CPDA-1 (840 μL, 14% of the total volume) was added to RBCs (approximately 6 mL of packed RBCs). Hematocrits were approximately 70% across storage tubes. Finally, preparations were split into 12 equal volumes (500 μL) and stored in 1.7 mL Eppendorf tubes (n=3 per mouse strain per time point) in a refrigerator at 4-6° C. Measurements were made on day 1 (immediately after processing) and then on days 2, 4 and 8 after processing such that measurements were made from independent tubes and not a single pooled blood tube.
Data analysis and presentation. Least-squares curve fitting and statistical analysis were performed using OriginPro software (OriginLab Corp., Northampton, MA). […] Difference between the two strains on the same day was assessed by t-test; within-strain differences over multiple days of storage were assessed through ANOVA.

[2] = system: RBC; conditions: cited from earlier work
[3] = system: human RBCs; experiment: CMH oxidation in human RBCs stored under normoxic vs hypoxic conditions, EPR; type: cell-based; conditions: entire duration of storage, p<9.31×10^−4
Experimental: as §1
Distinguishing between normoxic and hypoxic storage conditions. Hydroxylamine molecular probe, e.g., CMH, measurements can be used to distinguish human RBCs stored under normoxic and hypoxic conditions, as shown in FIG. 3B. Duplicate samples of human RBCs were stored 1) under normoxic conditions (equilibrated with air), and 2) under hypoxic conditions (equilibrated with low-oxygen atmosphere) and tested periodically with CMH. […]

[4] = CMH incubation with hydrogen peroxide, cell-free EPR
Experimental: as §1
(§2) Hydroxylamine molecular probe oxidation by O2^·−. The enzyme xanthine oxidase (XO) oxidizes its substrate hypoxanthine and generates O2^·− in the process. […] The first and last EPR spectrum of a representative data set are plotted as the inset at the top left, showing growth of the EPR spectrum as reaction proceeds. Superoxide dismutase (SOD) destroys O2^·− in a rapid enzymatic process, thus preventing it from reacting with CMH. […]

[5] = system: RBCs; experiment: Complete blood count RBC parameters following CMH exposure; type: cell-based, human; conditions: CMH 0.1, 0.3, 1.0, 3.0 and 10 mM, 10 minutes, ambient temperature, vs vehicle ddH2O
Experimental: (§3) Donor blood. Blood was obtained from healthy volunteers under informed consent. All human subject research was approved by the University of Maryland, Baltimore Institutional Review Board under Protocol #-HP-00092436.
(§4) CMH Incubation. Whole blood was centrifuged at 900 g/2500 rpm for 10 minutes to separate RBC from plasma/buffy coat. Plasma and buffy coat were removed, and RBCs were washed five times with 0.5 ml volumes of isotonic phosphate buffered saline containing 5 mM glucose. After each wash, supernatant and residual buffy coat was removed. After the 5th wash the RBC pellet was mixed with the preservative solution, CPDA-1 in an 85:15 ratio (150 μL CPDA-1 for a total volume of 1 mL). This step was performed to approximate the preparation of packed RBCs for refrigerator storage. CMH was diluted with double deionized H2O (ddH2O) to make stock solutions ranging from 400-4 mM. 10 μL of stock CMH solution or ddH2O was added to 390 μL of RBC/CPDA-1 suspensions, mixed gently but thoroughly and incubated at ambient temperature for 10 minutes. The concentrations tested were as follows: 0.1, 0.3, 1.0, 3.0 and 10 mM. This step was performed to approximate the preparation time needed for assaying superoxide in donor RBCs at the point of collection or in a blood bank setting. After 10 minutes of incubation, complete blood count, shear stress deformability, oxygen equilibrium (oxygen saturation and desaturation) was measured as 3 technical replicates for all samples. Fixation of RBCs was performed for scanning electron microscopy.
Total Blood cell count. Total blood cell count was quantified using ABX Pentra 60 C+ Hematology analyzer (HORIBA Instruments Inc., Kyoto, Japan). Briefly, 60 μL of whole blood was used for the analyses.

[6] = system: RBCs; experiment: Scanning electron microscopy of RBCs exposed to CMH; type: cell-based, human; conditions: CMH 0.1, 0.3, 1.0, 3.0 and 10 mM, 10 minutes, ambient temperature, vs vehicle
Experimental: as §3
as §4, with “This step was performed to approximate the preparation time needed for assaying superoxide in donor RBCs at the point of collection or in a blood bank setting.” left out, “Fixation of RBCs was performed for scanning electron microscopy.” left out

[7] = system: RBCs; experiment: Oxygen equilibrium (P50) of RBCs exposed to CMH; type: cell-based, human; conditions: CMH up to 10 mM (10-fold the intended assay concentration)
Experimental: as §3
as §4, with “10 μL of stock CMH solution or ddH2O was added to 390 μL of RBC/CPDA-1 suspensions, mixed gently but thoroughly and incubated at ambient temperature for 10 minutes. The concentrations tested were as follows: 0.1, 0.3, 1.0, 3.0 and 10 mM. This step was performed to approximate the preparation time needed for assaying superoxide in donor RBCs at the point of collection or in a blood bank setting.” left out, “Fixation of RBCs was performed for scanning electron microscopy.” left out
Measurement of Oxygen equilibrium (p50). […] The P50 value was determined using an automated blood oxygen analyzer (Hemox, Model B, TCS Scientific) following the manufacturer's protocol. […]

[8] = system: RBCs from healthy donors and donors with sickle-cell disease; experiment: CMH oxidation in RBCs from healthy donors vs donors with sickle-cell disease, EPR; type: cell-based, human; conditions: SCD n=19, Healthy n=6, p=1.26×10^−6
Experimental: as §1
Distinguishing between RBCs from healthy subjects and patients with sickle-cell disease. Hydroxylamine molecular probe, e.g., CMH, measurements can be used to differentiate between RBCs from healthy donors and donors with sickle-cell disease, as shown in FIG. 4. RBCs from screened healthy donors (Healthy, n=6) and donors that have sickle-cell disease (SCD, n=19) were tested with CMH. […] Error bars represent s.e.m.

[9] = CMH oxidation by O2^·− from xanthine oxidase/hypoxanthine, cell-free EPR; conditions: 1 mM CMH
Experimental: as §1, §2

[10] = system: RBCs; experiment: Shear stress ektacytometry of RBCs exposed to CMH; type: cell-based, human; conditions: CMH 0.1, 0.3, 1.0, 3.0 and 10 mM; shear stress 5.33 Pa and 30 Pa; vs vehicle, P>0.05
Experimental: as §3
as §4, with “10 μL of stock CMH solution or ddH2O was added to 390 μL of RBC/CPDA-1 suspensions, mixed gently but thoroughly and incubated at ambient temperature for 10 minutes. The concentrations tested were as follows: 0.1, 0.3, 1.0, 3.0 and 10 mM. This step was performed to approximate the preparation time needed for assaying superoxide in donor RBCs at the point of collection or in a blood bank setting.” left out, “Fixation of RBCs was performed for scanning electron microscopy.” left out
Measurements of RBC deformability. RBC deformability was measured by ektacytometry, using the laser-assisted optical rotational cell analyzer (LORCA MaxSis, Mechatronics, Netherlands) at 37° C. […] RBC deformability was measured by applying 9 different shear stresses ([…]). […]

SMILES	mean [CM·] higher in RBCs from FVB mice than B6 ([1]; at the time of CMH addition, each day of measurement)	membrane permeance [2]	rate of CMH oxidation, normoxic vs hypoxic stored RBCs [3]	generation of CM· on incubation with H2O2 ([4]; 1 mM CMH, 1 mM H2O2, PBS with 1 mM DTPA)	selectivity of CMH for O2^·− over H2O2 ([4]; 1 mM H2O2)	% hematocrit [5]	Mean corpuscular hemoglobin [5]	Mean corpuscular volume [5]	RBC count [5]	mean corpuscular hemoglobin concentration [5]	total hemoglobin [5]	RBC membrane/morphology changes by SEM [6]	oxygen equilibrium curves / P50 (hemoglobin allostery) [7]	rate of CMH oxidation, SCD RBCs vs Healthy RBCs [8]	rate of CM· generation in B6 RBCs ([1]; B6 mouse RBCs, day 2 of storage, 1 mM CMH, slightly above buffer control CPDA-1)	rate of CM· generation in FVB RBCs ([1]; FVB mouse RBCs vs B6, day 2 of storage, 1 mM CMH)	mean rate of CMH to CM· oxidation, FVB versus B6 murine RBCs ([1]; days 1, 2, 4 and 8 of storage)	reaction of CMH with O2^·− (CM· formation quantified by EPR) ([9]; XO 0.03 U/mL, hypoxanthine 0.5 mM, PBS with 1 mM DTPA)	production of CM· in presence of SOD ([9]; XO + hypoxanthine + SOD 5 μM)	RBC elongation index [10]
COC(=O)C1CC(C)(C)N([O])C1(C)C (stereo not drawn) [CM·]	~9 µM	membrane-permeant	–	–	–	–	–	–	–	–	–	–	–	–	–	–	–	–	–	–
COC(=O)C1CC(C)(C)N(O)C1(C)C (stereo not drawn) [CMH, 1-hydroxy-3-methoxycarbonyl-2,2,5,5-tetramethylpyrrolidine]	–	membrane-permeant	much higher rate	negligible generation of CM·	high selectivity	no CMH concentration dependent differences	no CMH concentration dependent differences	no CMH concentration dependent differences	no CMH concentration dependent differences	no CMH concentration dependent differences	no CMH concentration dependent differences	no remarkable changes	does not impart aberrant hemoglobin allostery	much higher rates	low rate	much higher rate	3 fold	converts it to CM·	negligible production of CM·	do not change the elongation indices
